Columns and labels:
3T3-L1 adipocytes = test: 6-NBDG uptake screening in 3T3-L1 adipocytes, 96-well, fluorescent microplate reader; format: cell-based, murine; conditions: 100 nM insulin or 250 μM zinc sulfate; 6-NBDG vs 2-NBDG
Description: 3T3-L1 murine fibroblasts were maintained in proliferation media, consisting of DMEM supplemented with 10% FBS, 50 units/mL penicillin and 50 μg/mL streptomycin. 3T3-L1 fibroblasts were induced to differentiate into adipocytes as follows: 48 h postconfluent cells (designated day 0) were cultured in DMEM supplemented 10% FBS, 0.5 mM 3-isobutyl-1-methyl-xanthine, 2 μg/ml dexamethasone, 1 μg/ml insulin, 50 units/mL penicillin and 50 μg/mL streptomycin for 2 days. Every 2 days thereafter, the cells were incubated with fresh DMEM supplemented with 10% FBS and 1 μg/ml insulin. 3T3-L1 adipocytes were used for experiments 8 days after the induction of differentiation.
Three cell lines were chosen to test if NBDG can be used to detect insulin-stimulated glucose uptake in a 96 well plate culture format, which is more suitable for cell-based screening to identify novel insulin mimetic compounds. The cell lines chosen were Huh7 hepatocytes, C2C12 myoblasts and 3T3-L1 pre-adipocytes, which represent the major body tissue types that are sensitive to the action of insulin (liver, muscle and fat). 10^4 cells/well were seeded in a black, 96 well tissue culture plate (BD Falcon, NJ, USA). C2C12 myoblasts and 3T3-L1 adipocytes were induced to undergo differentiation into myotubes and adipocytes, respectively, to compare the NDBG signal in proliferating and differentiated cells. NBDG uptake was measured following treatment with 10 nM or 100 nM insulin, and 1 μM or 10 μM rosiglitazone (an insulin-sensitizing agent), using a fluorescent microplate reader (SpectraMAX GeminiXS and SoftMax Pro V5 software, Molecular Devices, CA, USA). Cells were cultured in serum-free low glucose culture media for 3 h before the addition of insulin.
To test the NBDG-based screening system, a combinatorial chemical library of 576 triazine-based small molecules was screened at a concentration of 5 μM. The combinatorial library was provided by Professor Young-Tae Chang, Department of Chemistry, National University of Singapore.
To test if this screening protocol could detect new insulin mimetic compounds, a combinatorial chemical library of 576 triazine-based small molecules was screened.

GLUT 1 = target: T1, GLUT 1 (Homo sapiens, UniProt P11166); conditions: cited from earlier work
T1 sequence (P11166 1-492): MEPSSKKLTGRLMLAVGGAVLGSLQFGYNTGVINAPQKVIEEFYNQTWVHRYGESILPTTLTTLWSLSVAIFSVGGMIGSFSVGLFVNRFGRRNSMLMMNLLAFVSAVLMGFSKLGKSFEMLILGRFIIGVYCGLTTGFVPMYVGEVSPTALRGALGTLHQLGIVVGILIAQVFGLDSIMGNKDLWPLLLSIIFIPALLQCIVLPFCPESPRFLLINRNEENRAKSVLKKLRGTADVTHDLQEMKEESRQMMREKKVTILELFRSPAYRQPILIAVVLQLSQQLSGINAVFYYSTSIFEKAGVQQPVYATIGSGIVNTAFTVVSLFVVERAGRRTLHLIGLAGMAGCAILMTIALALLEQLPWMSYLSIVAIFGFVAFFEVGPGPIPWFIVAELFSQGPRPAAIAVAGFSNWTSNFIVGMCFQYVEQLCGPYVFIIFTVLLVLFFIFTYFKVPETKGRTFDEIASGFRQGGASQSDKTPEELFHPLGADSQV

## O=[N+]([O-])c1ccc(NCC2OC(O)C(O)C(O)[C@@H]2O)c2nonc12 (some centres unmarked) [6-NBDG, 6-(N-(7-nitrobenz-2-oxa-1,3-diazol-4-yl)amino)-6-deoxyglucose, reference compound]
3T3-L1 adipocytes
  fluorescent signal of probe after insulin-stimulated uptake: produced a greater fluorescent signal than 2-NBDG
GLUT 1
  affinity for GLUT 1 relative to glucose: 300 times

— patent US9254290B2, “Method for screening diabetes treating agent” (GWANGJU INSTITUTE OF SCIENCE AND TECHNOLOGY, priority 2010, dated 2016)
